Measurements reported in PubChem BioAssay AID1963984 (Molecular Pharmacology Branch, DTP, NCI, 2024).

Tested on: 233499-124-R-J3-PDC spheroids with HUVEC/MSC, viability
Test: Anticancer human tumor 233499-124-R-J3-PDC patient-derived colon adenocarcinoma cell line growth inhibition [PI3K]
Conditions: for IC50: curve of first compound; for viability, T/C: stronger effect = lower value
How it was run: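 Tumor cells grown as multi-cell spheroids with HUVEC endothelial cells and MSC fibroblast-like stroma were treated with targeted agents combined with inavolisib, alpelisib, duvelisib or copanlisib. Doses fell in half-log steps from near clinical Cmax, else from 10 microM. Viability was measured.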

[1] = second compound 0.00316 µM, first compound 0.0316 µM
[2] = second compound 0.00316 µM, first compound 0.1 µM
[3] = second compound 0.00316 µM, first compound 0.316 µM
[4] = second compound 0.00316 µM, first compound 1 µM
[5] = second compound 0.01 µM, first compound 0.0316 µM
[6] = second compound 0.01 µM, first compound 0.1 µM
[7] = second compound 0.01 µM, first compound 0.316 µM
[8] = second compound 0.01 µM, first compound 1 µM
[9] = second compound 0.0316 µM, first compound 0.0316 µM
[10] = second compound 0.0316 µM, first compound 0.1 µM
[11] = second compound 0.0316 µM, first compound 0.316 µM
[12] = second compound 0.0316 µM, first compound 1 µM
[13] = second compound 0.1 µM, first compound 0.0316 µM
[14] = second compound 0.1 µM, first compound 0.1 µM
[15] = second compound 0.1 µM, first compound 0.316 µM
[16] = second compound 0.1 µM, first compound 1 µM
[17] = second compound 0.316 µM, first compound 0.0316 µM
[18] = second compound 0.316 µM, first compound 0.1 µM
[19] = second compound 0.316 µM, first compound 0.316 µM
[20] = second compound 0.316 µM, first compound 1 µM
[21] = second compound 1 µM, first compound 0.0316 µM
[22] = second compound 1 µM, first compound 0.1 µM
[23] = second compound 1 µM, first compound 0.316 µM
[24] = second compound 1 µM, first compound 1 µM
[25] = second compound 0.00316 µM, first compound 3.16 µM
[26] = second compound 0.00316 µM, first compound 10 µM
[27] = second compound 0.01 µM, first compound 3.16 µM
[28] = second compound 0.01 µM, first compound 10 µM
[29] = second compound 0.0316 µM, first compound 3.16 µM
[30] = second compound 0.0316 µM, first compound 10 µM
[31] = second compound 0.1 µM, first compound 3.16 µM
[32] = second compound 0.1 µM, first compound 10 µM
[33] = second compound 0.316 µM, first compound 3.16 µM
[34] = second compound 0.316 µM, first compound 10 µM
[35] = second compound 1 µM, first compound 3.16 µM
[36] = second compound 1 µM, first compound 10 µM
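Note: spheroids exposed to agents for seven days before readout.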
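Throughout, for viability, T/C: percent viability relative to DMSO vehicle control taken as 100%.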

CCN1CCN(Cc2ccc(Nc3ncc(F)c(-c4cc(F)c5nc(C)n(C(C)C)c5c4)n3)nc2)CC1 + CC(Nc1ccc2c(c1)OCCn1cc(N3C(=O)OCC3C(F)F)nc1-2)C(N)=O
IC50 (second compound 0.00316 µM): > 1000 nM
IC50 (second compound 0.01 µM): 672 nM
IC50 (second compound 0.0316 µM): 528 nM
IC50 (second compound 0.1 µM): 236 nM
IC50 (second compound 0.316 µM): 86.9 nM
IC50 (second compound 1 µM): 4.39 nM
viability, T/C (second compound 0.00316 µM, first compound 0.00316 µM): 68.8%
viability, T/C (second compound 0.00316 µM, first compound 0.01 µM): 98.9%
viability, T/C [1]: 94%
viability, T/C [2]: 73.7%
viability, T/C [3]: 59.5%
viability, T/C [4]: 49.7%
viability, T/C (second compound 0.01 µM, first compound 0.00316 µM): 106%
viability, T/C (second compound 0.01 µM, first compound 0.01 µM): 95.8%
viability, T/C [5]: 89.7%
viability, T/C [6]: 85.4%
viability, T/C [7]: 79.9%
viability, T/C [8]: 35.7%
viability, T/C (second compound 0.0316 µM, first compound 0.00316 µM): 90.2%
viability, T/C (second compound 0.0316 µM, first compound 0.01 µM): 85.2%
viability, T/C [9]: 82%
viability, T/C [10]: 91.6%
viability, T/C [11]: 58.5%
viability, T/C [12]: 39.3%
viability, T/C (second compound 0.1 µM, first compound 0.00316 µM): 87.8%
viability, T/C (second compound 0.1 µM, first compound 0.01 µM): 90.8%
viability, T/C [13]: 73.8%
viability, T/C [14]: 79%
viability, T/C [15]: 39.4%
viability, T/C [16]: 40.8%
viability, T/C (second compound 0.316 µM, first compound 0.00316 µM): 73.2%
viability, T/C (second compound 0.316 µM, first compound 0.01 µM): 72.7%
viability, T/C [17]: 63%
viability, T/C [18]: 51.1%
viability, T/C [19]: 31.2%
viability, T/C [20]: 44.5%
viability, T/C (second compound 1 µM, first compound 0.00316 µM): 55.3%
viability, T/C (second compound 1 µM, first compound 0.01 µM): 45.2%
viability, T/C [21]: 32.2%
viability, T/C [22]: 48.9%
viability, T/C [23]: 42.6%
viability, T/C [24]: 27.8%

Cn1ncc(Cl)c1-c1cc(C(=O)NC(CN)Cc2cccc(F)c2)sc1Cl (stereo unspecified) + CC(Nc1ccc2c(c1)OCCn1cc(N3C(=O)OCC3C(F)F)nc1-2)C(N)=O
IC50 (second compound 0.00316 µM): 4460 nM
IC50 (second compound 0.01 µM): 3790 nM
IC50 (second compound 0.0316 µM): 2730 nM
IC50 (second compound 0.1 µM): 3190 nM
IC50 (second compound 0.316 µM): 1800 nM
IC50 (second compound 1 µM): 1730 nM
viability, T/C [1]: 73.9%
viability, T/C [2]: 93%
viability, T/C [3]: 93.9%
viability, T/C [4]: 99.9%
viability, T/C [25]: 58.4%
viability, T/C [26]: 30.5%
viability, T/C [5]: 86.1%
viability, T/C [6]: 81.8%
viability, T/C [7]: 81.5%
viability, T/C [8]: 80.8%
viability, T/C [27]: 53.3%
viability, T/C [28]: 32.1%
viability, T/C [9]: 111%
viability, T/C [10]: 82.9%
viability, T/C [11]: 80.3%
viability, T/C [12]: 77.8%
viability, T/C [29]: 43.8%
viability, T/C [30]: 21.4%
viability, T/C [13]: 97.4%
viability, T/C [14]: 94.3%
viability, T/C [15]: 65.6%
viability, T/C [16]: 67%
viability, T/C [31]: 62.3%
viability, T/C [32]: 16.6%
viability, T/C [17]: 79%
viability, T/C [18]: 94.3%
viability, T/C [19]: 61.5%
viability, T/C [20]: 55.2%
viability, T/C [33]: 46.9%
viability, T/C [34]: 19.8%
viability, T/C [21]: 42.6%
viability, T/C [22]: 61.8%
viability, T/C [23]: 67.2%
viability, T/C [24]: 56%
viability, T/C [35]: 42.9%
viability, T/C [36]: 14.3%

Cn1nccc1Nc1nccc(-c2ccn(C(CO)c3ccc(Cl)c(F)c3)c(=O)c2)n1 (stereo unspecified) + CC(Nc1ccc2c(c1)OCCn1cc(N3C(=O)OCC3C(F)F)nc1-2)C(N)=O
IC50 (second compound 0.00316 µM): > 10000 nM
IC50 (second compound 0.01 µM): 9870 nM
IC50 (second compound 0.0316 µM): > 10000 nM
IC50 (second compound 0.1 µM): > 10000 nM
IC50 (second compound 0.316 µM): 694 nM
IC50 (second compound 1 µM): 211 nM
viability, T/C [1]: 81.3%
viability, T/C [2]: 95.2%
viability, T/C [3]: 80.5%
viability, T/C [4]: 104%
viability, T/C [25]: 52.7%
viability, T/C [26]: 58.2%
viability, T/C [5]: 83%
viability, T/C [6]: 81.6%
viability, T/C [7]: 74.3%
viability, T/C [8]: 74.9%
viability, T/C [27]: 59.5%
viability, T/C [28]: 50.2%
viability, T/C [9]: 95.6%
viability, T/C [10]: 100%
viability, T/C [11]: 71.8%
viability, T/C [12]: 55.7%
viability, T/C [29]: 79.3%
viability, T/C [30]: 66%
viability, T/C [13]: 76.3%
viability, T/C [14]: 77.3%
viability, T/C [15]: 82.3%
viability, T/C [16]: 63.2%
viability, T/C [31]: 53.1%
viability, T/C [32]: 48.1%
viability, T/C [17]: 78.3%
viability, T/C [18]: 73%
viability, T/C [19]: 58.6%
viability, T/C [20]: 45.9%
viability, T/C [33]: 39.6%
viability, T/C [34]: 36.3%
viability, T/C [21]: 55.8%
viability, T/C [22]: 58.6%
viability, T/C [23]: 43.5%
viability, T/C [24]: 41.6%
viability, T/C [35]: 38.9%
viability, T/C [36]: 27.8%
